pIC50: −log10 of the molar value. “And” between values parts separate entries of the source, which are not always exact repeats. Equal entries are not always repeated.
Assays:
[1] = target: T1, Genome polyprotein (dengue virus type 2, UniProt P29990); assay type: functional, Thailand/16681/1984
[2] = target: T1, Genome polyprotein; assay type: functional, Thailand/16681/1984; remark: listed apart in the source

T1 sequence (P29990 1346-1475 limits assumed): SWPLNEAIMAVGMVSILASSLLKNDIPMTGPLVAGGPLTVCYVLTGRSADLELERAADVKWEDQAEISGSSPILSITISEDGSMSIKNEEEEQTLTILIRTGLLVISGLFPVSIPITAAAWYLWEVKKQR
T1 sequence (P29990 1476-2093 limits assumed): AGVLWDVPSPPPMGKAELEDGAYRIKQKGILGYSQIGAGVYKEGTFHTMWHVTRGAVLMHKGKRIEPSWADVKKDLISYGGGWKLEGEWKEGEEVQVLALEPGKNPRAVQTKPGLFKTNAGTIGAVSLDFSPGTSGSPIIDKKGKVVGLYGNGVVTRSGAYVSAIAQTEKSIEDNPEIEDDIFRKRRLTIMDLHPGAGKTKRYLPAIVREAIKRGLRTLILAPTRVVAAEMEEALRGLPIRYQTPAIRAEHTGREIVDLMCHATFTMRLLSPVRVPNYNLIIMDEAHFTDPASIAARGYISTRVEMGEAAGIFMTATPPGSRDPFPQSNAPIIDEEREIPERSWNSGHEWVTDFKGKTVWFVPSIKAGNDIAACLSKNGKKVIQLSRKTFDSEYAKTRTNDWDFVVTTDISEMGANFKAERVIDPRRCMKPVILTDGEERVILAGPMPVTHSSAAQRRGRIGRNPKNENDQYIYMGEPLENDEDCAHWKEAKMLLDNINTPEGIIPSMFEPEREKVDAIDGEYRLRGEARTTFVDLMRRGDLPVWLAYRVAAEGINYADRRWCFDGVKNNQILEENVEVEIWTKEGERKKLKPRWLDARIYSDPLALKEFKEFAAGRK

Row | Structure (SMILES) | pIC50 [1] | pIC50 [2]
1 | O=C(Nc1ccc2c(c1)CNC2)c1cc(Cl)cc2[nH]c(-c3ccnn3C3CC3)nc12 | < 4.00 | 4.60
2 | O=C(Nc1ccc2c(c1)CNC2)N1CC[C@H](CC(F)(F)F)C1 | < 4.00 | < 4.00
3 | Cc1cc(C(=O)Nc2cccc(CN)c2)nc(C)n1 | < 4.00 | < 4.00
4 | O=C(Nc1ccc2c(c1)CNC2)c1cc(Cl)cc2nn(C3CCC3)cc12 | 4.05 | < 4.00
5 | COC(=O)c1ccc2[nH]cc(Cc3ccc(-c4nnn[nH]4)cc3)c2c1 | 4.14 | < 4.00
6 | O=C(Nc1ccc2c(c1)CNC2)c1c(Cl)ccc2c1OCO2 | < 4.00 | < 4.00
7 | NCc1cccc(NC(=O)c2cc(NC(=O)OCc3ccccc3)cc3c2OCCO3)c1 | < 4.00 | < 4.00
8 | Cc1c(C(=O)Nc2cccc(CN)c2)cc(C(C)C)n1C | < 4.00 | < 4.00
9 | Cc1c(C(=O)Nc2cccc(-c3ccc(O)nc3)c2)cc(C2CC2)n1C | < 4.00 | < 4.00
10 | O=C(Nc1cc(Cl)cc(C(=O)Nc2nccc([C@H]3CCCCN3)n2)c1)OCc1ccccc1 | < 4.00 | < 4.00
11 | CNC(=O)[C@H](Nc1cc(Cl)cc2[nH]ncc12)c1ccc2c(c1)CNC2 | < 4.00 | < 4.00
12 | NCc1ccc(C(=O)O)c(NC(=O)c2cc(Cl)cc(NC(=O)OCc3ccccc3)c2)c1 | < 4.00 | < 4.00
13 | O=C(Nc1ccc2c(c1)CNC2)c1cncc(N2CCOCC2)c1 | < 4.00 | < 4.00
14 | c1ccc(-c2[nH]c3ccccc3c2CN2CCC(c3cscn3)CC2)cc1 | < 4.00 | < 4.00
15 | O=C1OCc2ccc(NC(=O)[C@H]3CCNC3)cc21 | < 4.00 | < 4.00
16 | C#C[C@H](Nc1ccc2c(c1)CNC2)c1cccc2[nH]c(=O)[nH]c12 | < 4.00 | < 4.00
17 | O=C1Cc2c(cccc2C(=O)Nc2ccnn2Cc2ccncc2)N1 | < 4.00 | < 4.00
18 | Clc1cc(CNc2ccc3c(n2)CNC3)c2cn[nH]c2c1 | < 4.00 | < 4.00
19 | CC(C)c1nc2cc(Cl)ccc2n1Cc1ccc(-c2nn[nH]n2)cc1 | < 4.00 | < 4.00
20 | O=C(Nc1cc(Cl)cc(/C=C/c2cccc(-n3nn[nH]c3=O)c2)c1)OCc1ccccc1 | 4.94 and 5.06 | 5.06 and 5.07
21 | CN(c1ccc2c(c1)CNC2)[C@H](C(=O)NCC(F)F)c1cc(Cl)cc(C2CC2)c1 | < 4.00 | < 4.00

Row | Structure (SMILES) | pIC50 [1] | pIC50 [2]
22 | O=C1CN(C(=O)Nc2ccc3c(c2)CNC3)[C@H]2CCCC[C@H]2N1 | < 4.00 | < 4.00
23 | O=C(Nc1cc(Cl)cc([C@H]2CN(Cc3ccccc3)C[C@@H]2c2cccc(-c3nn[nH]n3)c2)c1)OCc1ccccc1 | 5.23 | 5.21
24 | O=C(Nc1cc(Cl)cc(C(=O)Nc2ccc(S(=O)(=O)N3CCNCC3)cc2)c1)OCc1ccccc1 | < 4.00 | < 4.00
25 | O=C(Nc1ccc2c(c1)CNC2)c1cc(Cl)cc2[nH]c(-c3cc(C4CC4)[nH]n3)nc12 | < 4.00 | 5.14 and 5.29
26 | Cn1nc2c(c1NC(=O)c1cc(Cl)cc(NC(=O)OCc3ccccc3)c1)CCNC2 | < 4.00 | < 4.00
27 | O=C1Cc2c(cc(Br)cc2C(=O)Nc2ccc3c(c2)CNC3)N1 | < 4.00 | < 4.00
28 | Cc1cc(C(=O)Nc2cccc(CN)c2)c2c(n1)CCCC2 | < 4.00 | < 4.00
29 | O=C(Nc1ccc2c(c1)CNC2)c1cc(F)cc2[nH]c(-c3cnc(C4CC4)o3)nc12 | < 4.00 | < 4.30
30 | O=C(Nc1cc(Cl)cc(-c2cn(C3CCCC3)nc2C(=O)O)c1)OCc1ccccc1 | 4.37 and 4.50 | 4.46
31 | C#C[C@H](Nc1cccc(-c2nn[nH]n2)c1)c1cc(Cl)cc(NC(=O)OCc2ccccc2)c1 | 5.03 and 5.08 | 4.97
32 | O=C(NCc1ccc2c(c1)CNC2)c1cc(Cl)cc2[nH]ncc12 | < 4.00 | < 4.00
33 | O=C(Nc1ccc2c(c1)CNC2)c1ccc(-c2cncs2)cc1 | < 4.00 | < 4.00
34 | Cc1c(C(=O)Nc2cc(C(=O)N3CCNC(=O)C3)ccn2)cc(C2CC2)n1C | < 4.00 | < 4.00
35 | C[C@H](NC(=O)c1cccc2c1CC(=O)N2)c1cccc(S(C)(=O)=O)c1 | < 4.00 | < 4.00
36 | Cc1nccn1-c1ccc(Cl)cc1C(=O)Nc1cccc(CN)c1 | < 4.00 | < 4.00
37 | CCc1nc2ccc(Cl)cc2n1Cc1ccc2c(c1)CNC2 | < 4.00 | < 4.00
38 | COCCNC(=O)[C@H](Nc1cccc(-c2nn[nH]n2)c1)c1cc(Cl)cc(NC(=O)OCc2ccccc2)c1 | 4.55 | 4.22
39 | Cc1[nH]nc2c1CC[C@H](NC(=O)c1cccc3c1CC(=O)N3)C2 | < 4.00 | < 4.00
40 | O=C(Nc1ccc2c(c1)CN[C@H]2CO)c1cc(F)cc2[nH]ncc12 | < 4.00 | < 4.00
41 | CC(C)C[C@H](NC(=O)c1cc(Cl)cc(NC(=O)OCc2ccccc2)c1)c1nnn[nH]1 | 4.55 | 4.13
42 | O=C(Nc1cc(-c2cccnc2)ccn1)c1csc(C[C@H]2CCNC2)n1 | < 4.00 | < 4.00

Source: ChEMBL document CHEMBL5604063, “ASAP - DENV-2 NS2B-NS3 protease fluorescence dose response” (2024)
